# Entries after “also recorded” stand apart in the source; their conditions may differ.
# How the values were obtained:
# [1] = tested on: L. infantum promastigotes; assay: Anti-Leishmania activity assay on promastigotes (MTT viability); format: cell-based; conditions: pure compounds
# Protocol: (§1) Anti-Leishmania (AL) activity was assessed on L. infantum promastigotes (MCAN/ES/98/LLM-722), kindly provided by Dr. J.M. Requena from CBM-CSIC, as well as on L. infantum (M/CAN/ES/96/BCN150 zymodeme MON-1), strain isolated from a dog with active visceral leishmaniasis. L. infantum promastigotes (MCAN/ES/98/LLM-722) were cultured in RPMI medium supplemented with 15% FBS and 10 μg/mL of hemin (Acros Organics, Madrid, Spain), grown at 26 °C. Promastigotes in logarithmic growth were seeded in 96-well flat-bottom plates at a volume of 100 μL of culture per well and incubated for 48 h. Promastigotes for macrophage infection (M/CAN/ES/96/BCN150 zymodeme MON-1) were maintained at 26 °C in Schneider’s insect medium (Lonza, Basel, Switzerland) supplemented with 10% FBS and 100 U/mL penicillin and 100 μg/mL streptomycin (Lonza, Basel, Switzerland) (Pen-Strep). Promastigotes in the stationary phase of growth (5–6 days) were washed twice in phosphate-buffered saline at 2700× g for 10 min at 22 °C and employed for macrophage infection.
# EOs and pure compounds were solved in DMSO (Sigma, Madrid, Spain) (<1% final concentration). […] Trophozoites/promastigotes viability was assessed using the modified MTT colorimetric assay, as described previously in the literature, with results further validated by microscopic examination. The plate was analyzed in a spectrophotometer at a wavelength of 570 nm. The percentage of antiparasitic activity was calculated as growth inhibition, using the following formula: % AT = 100 − [(Ap − Ab) ÷ (Ac − Ab)] × 100, where Ap is the absorbance of the tested product, Ab the absorbance of the blank and Ac the absorbance of the control wells (culture without treatment).
# Pure compounds were tested using the same method, although at concentrations of 100, 75, 50, 25, 10, and 1 μg/mL. Metronidazole (Acros Organics, Madrid, Spain) served as a reference compound for anti-Giardia activity and Anti-Trichomonas activity and amphotericin B for anti-Leishmania activity.
# Data was analyzed using STATGRAPHICS Centurion XIX (https://www.statgraphics.com) (Statgraphics Technologies, Inc., The Plains, VA, USA). The mammalian cells and trophozoites viability were tested with each compound in a dose–response experiment to calculate their relative potency (CC50 or IC50 value, respectively). IC50 (μg/mL) expresses the dose of EOs, extracts or pure compounds needed to produce 50% mortality of trophozoites, while CC50 (μg/mL) expresses the dose of compounds necessary to produce 50% mortality of Vero cells.
# [2] = tested on: intracellular amastigotes of L. infantum; assay: Infection index of DH82 macrophages infected with L. infantum (intracellular amastigotes); format: cell-based, Leishmania infantum; conditions: for nº Amastigotes/Infected Cell / % Infected Cells / Infection Index: DH82 macrophages, 48 h
# Protocol: as §1
# Canine DH82 (ATCC®-CRL-10389TM) macrophages were maintained in Dulbecco’s modified Eagle’s medium (DMEM) (Thermo Fisher Scientific, Waltham, MA, USA) supplemented with 10% heat-inactivated FBS (Thermo Fisher Scientific, Waltham, MA, USA), and Pen-Strep at 37 °C in 5% CO2.
# DH82 cells (5 × 10^4 per well) were seeded in LabTek culture chamber slides (Thermo Scientific, Nunc™, Roskilde, Denmark) and incubated overnight at 37 °C and 5% CO2. On the following day, macrophages were infected with L. infantum stationary phase-promastigotes at a ratio of 5:1 parasites/macrophage and after 4 h of incubation at 37 °C, a time point that reflects initial infection, extracellular promastigotes were removed by washing. Germacrone was added at varying concentrations (10, 50 and 100 μg/mL) and macrophages were incubated in fresh medium for 48 h at 37 °C and 5% CO2. After Giemsa staining, cells were mounted with Vitro-Clud (Deltalab SLU, Barcelona, Spain), and 400 macrophages were counted in duplicate in a microscope Olympus BX41 (Olympus Corporation, Tokyo, Japan). The percentage of infected macrophages and the mean of the number of amastigotes per infected macrophage (defined as the intensity of infection) were evaluated. The infection index was calculated by multiplication of both parameters to account for the overall parasite load.
# [3] = tested on: G. duodenalis trophozoites; assay: Morphological evaluation by light microscopy (Diff-Quik), G. duodenalis; format: cell-based, Giardia duodenalis; conditions: germacrone 100 µg/mL
# Protocol: Each well contained 435 μL of culture medium and 15 μL of the test or control compounds at the above-mentioned concentrations. The chamber included: two wells for growth control (0.5 h, 48 h), two for germacrone (0.5 h, 48 h), and two for metronidazole (0.5 h, 48 h). Incubation was performed at 37 °C. At each time point, the medium was removed, wells were dried, fixed, and stained with Diff-Quik. Morphological changes were analyzed using light microscopy. Experiments were performed as independent biological replicates on different plates, and one Diff-Quik stained smear was obtained per condition and time point per biological replicate. For morphometric analysis, a total of 30 trophozoites per condition and time point were measured across the independent biological replicates and were selected by consecutive sampling during a predefined serpentine (zig-zag) scan across the preparation. Up to two eligible trophozoites per field (intact, well-focused and non-overlapping) were measured in sequential fields until n = 30 was reached, avoiding subjective selection of “representative” cells. Overlapping, partially visible, out-of-focus, edge-of-field, or debris-obscured trophozoites were excluded a priori. Trophozoites were photographed using a researcher's mobile phone mounted to the microscope ocular. Calibration was performed at the same magnification using a stage micrometre and applied in ImageJ v. 1.54d. One Diff-Quik stained smear was obtained per condition/time point per biological replicate Cell length, cell width, cell surface, nuclear length, nuclear width, axoneme (only Giardia), and length of axostyle (only T. gallinae) were measured with ImageJ software, and the data were recorded in an Excel database for statistical analysis. The Shapiro-Wilk test was used to assess the normality of the morphological variables. When data followed a normal distribution, Student's t-test was applied; otherwise, non-parametric tests, such as the Mann-Whitney U test, was used. Values of p < 0.05 were considered significant. For the morphological analysis, the mean, standard deviation, median, and interquartile range were calculated using SPSS version 20 (IBM Corp., Armonk, NY, USA).
# [4] = metronidazole 100 µg/mL, 0.5 and 48 h, control DMSO 1%
structure (smiles),measurement,setting,value
"CC(C)=C1C/C=C(\C)CC/C=C(\C)CC1=O [Compound 2, germacrone]",IC50,[1],37.5 µg/mL
same,nº Amastigotes/Infected Cell,[2]; 10 µg/mL,2.4 ± 1.1
same,% Infected Cells,"[2]; 10 µg/mL, control of infection 42.8, listed as Germacrone (2)",25.9 ± 8.3 %
same,% Infected Cells,"[2]; 10 µg/mL, control of infection 42.8, listed as germacrone (2)",25.9%
same,Infection Index,"[2]; 10 µg/mL, control of infection 152.1, listed as Germacrone (2)",61.0 ± 9.4
same,Infection Index,"[2]; 10 µg/mL, control of infection 152.1, listed as germacrone (2)",61.0
same,reduction of the infection index,"[2]; 10 µg/mL, from 152.1 (control) to 61.0",more than 50%
same,% Infected Cells,[2]; 50 µg/mL,dead cells
same,Infection Index,[2]; 50 µg/mL,dead cells
same,nº Amastigotes/Infected Cell,[2]; 50 µg/mL,dead cells
same,% Infected Cells,[2]; 100 µg/mL,dead cells
same,Infection Index,[2]; 100 µg/mL,dead cells
same,nº Amastigotes/Infected Cell,[2]; 100 µg/mL,dead cells
same,axoneme length vs control,[3]; [4],"decreased at 0.5 h; also recorded: at 48 h, germacrone caused an increase"
same,cell length vs control,[3]; [4],significant reductions at 30 min
same,cell width vs control,[3]; [4],"no differences were observed at 0.5 h with germacrone, but after 48 h, a significant increase"
same,nuclear length (left and right) vs control,[3]; [4],decreased significantly with germacrone at 0.5 h and later increased after 48 h
same,nuclear width vs control,[3]; [4],"reduction at 0.5 h, followed by an increase at 48 h"
same,morphological changes (light microscopy),"[3]; 48 h of exposure, Diff-Quik",less defined cytoplasm and nucleus of the cells
